Data: patent US20250059227A1, “ARTIFICIAL NUCLEIC ACID, METHOD FOR PRODUCING SAME, AND USE OF SAME” (RIKEN GENESIS CO., LTD., priority 2021, published 2025)
[NMe] = code of the source, not defined here; [(B)β] = from compound B-13; [(C)Hβ] = from compound C-8; d = 2'-deoxy (DNA)

Columns and labels:
[1] = tested on: single-stranded RNA (5′-r(agcaaaaaacgc)-3′; SEQ ID NO: 8) (a sense strand); format: binding; conditions: pH 7.2
[2] = tested on: single-stranded DNA (5′-d(agcaaaaaacgc)-3′; SEQ ID NO: 7) (a sense strand); experiment: Melting temperature (Tm), capability of forming double strand with single-stranded DNA; format: binding; conditions: for Tm: pH 7.2; for capability of forming a double strand with single-stranded DNA versus single-stranded RNA: antisense strand as shown in SEQ ID NO: 1, modified with one base

| Substance | Tm [1] [°C] | Tm [2] [°C] | capability of forming a double strand with single-stranded DNA versus single-stranded RNA [2] |
| --- | --- | --- | --- |
| 5′-d(gcgtxxxttgct)-3′ x = NMe-T: reference antisense 12-mer (SEQ ID NO: 3); three x = formula (9) unit, Base thymin-1-yl, R^b Me (antisense GCGTTTTTTGCT; sugars from the 5' end d4 [NMe]3 d5, backbone and methylation of C not given here) | 60 | 51 |  |
| 5′-d(gcgttxtttgct)-3′ x = (C)Hβ-T: (C)Hβ-T modified oligonucleotide, antisense 12-mer DNA (SEQ ID NO: 1), one x = (C)Hβ-T unit from compound C-8 (antisense GCGTTTTTTGCT; sugars from the 5' end d5 [(C)Hβ]1 d6, backbone not given here) |  |  | superior capability of forming a double strand together with single-stranded DNA over single-stranded RNA |
| 5′-d(gcgxtxtxtgct)-3′ x = NMe-T: reference antisense 12-mer (SEQ ID NO: 2); three x = formula (9) unit, Base thymin-1-yl, R^b Me (antisense GCGTTTTTTGCT; sugars from the 5' end ddd[NMe]d[NMe]d[NMe]dddd, backbone and methylation of C not given here) | 64 | 52 |  |
| 5′-d(gcgttxtttgct)-3′ x = (B)β-T: (B)β-T modified oligonucleotide, antisense 12-mer DNA (SEQ ID NO: 1), one x = (B)β-T unit from compound B-13 (antisense GCGTTTTTTGCT; sugars from the 5' end d5 [(B)β]1 d6, backbone not given here) |  |  | superior capability of forming a double strand together with single-stranded DNA over single-stranded RNA |
